# Reference: PubChem BioAssay AID2060501 (Molecular Pharmacology Branch, DTP, NCI, 2025)
# Tested on: 282377-053-R-J1-PDC complex spheroids, viability
# Assay: Anticancer human tumor 282377-053-R-J1-PDC patient-derived colon adenocarcinoma cell line growth inhibition [GQUAD]
# Conditions: for IC50: curve of first compound; for viability, T/C: stronger effect = lower value
# How it was run: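 Tumor cells were grown as complex spheroids with HUVEC endothelial cells and mesenchymal stem cells as stroma. G-quadruplex stabilizers were combined with targeted agents over half-log dilutions from near the clinical Cmax, or from 10 microM.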
# [1] = second compound 0.0316 µM, first compound 0.0316 µM
# [2] = second compound 0.0316 µM, first compound 0.1 µM
# [3] = second compound 0.0316 µM, first compound 0.316 µM
# [4] = second compound 0.0316 µM, first compound 1 µM
# [5] = second compound 0.0316 µM, first compound 3.16 µM
# [6] = second compound 0.0316 µM, first compound 10 µM
# [7] = second compound 0.1 µM, first compound 0.0316 µM
# [8] = second compound 0.1 µM, first compound 0.1 µM
# [9] = second compound 0.1 µM, first compound 0.316 µM
# [10] = second compound 0.1 µM, first compound 1 µM
# [11] = second compound 0.1 µM, first compound 3.16 µM
# [12] = second compound 0.1 µM, first compound 10 µM
# [13] = second compound 0.316 µM, first compound 0.0316 µM
# [14] = second compound 0.316 µM, first compound 0.1 µM
# [15] = second compound 0.316 µM, first compound 0.316 µM
# [16] = second compound 0.316 µM, first compound 1 µM
# [17] = second compound 0.316 µM, first compound 3.16 µM
# [18] = second compound 0.316 µM, first compound 10 µM
# [19] = second compound 1 µM, first compound 0.0316 µM
# [20] = second compound 1 µM, first compound 0.1 µM
# [21] = second compound 1 µM, first compound 0.316 µM
# [22] = second compound 1 µM, first compound 1 µM
# [23] = second compound 1 µM, first compound 3.16 µM
# [24] = second compound 1 µM, first compound 10 µM
# [25] = second compound 3.16 µM, first compound 0.0316 µM
# [26] = second compound 3.16 µM, first compound 0.1 µM
# [27] = second compound 3.16 µM, first compound 0.316 µM
# [28] = second compound 3.16 µM, first compound 1 µM
# [29] = second compound 3.16 µM, first compound 3.16 µM
# [30] = second compound 3.16 µM, first compound 10 µM
# [31] = second compound 10 µM, first compound 0.0316 µM
# [32] = second compound 10 µM, first compound 0.1 µM
# [33] = second compound 10 µM, first compound 0.316 µM
# [34] = second compound 10 µM, first compound 1 µM
# [35] = second compound 10 µM, first compound 3.16 µM
# [36] = second compound 10 µM, first compound 10 µM
# 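Note: spheroids exposed to compounds for 7 days before readout.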
# 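Throughout, for viability, T/C: percent of vehicle DMSO control viability with 100% = untreated-like growth.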
structure (smiles),measurement,setting,value
C=CC(=O)N1CCN(c2nc(=O)n(-c3c(C)ccnc3C(C)C)c3nc(-c4c(O)cccc4F)c(F)cc23)C(C)C1 (stereo not drawn) + CN(C)c1ccc(Nc2c3ccc(NC(=O)CCN4CCCC4)cc3nc3cc(NC(=O)CCN4CCCC4)ccc23)cc1,IC50,second compound 0.0316 µM,> 10000 nM
same,IC50,second compound 0.1 µM,> 10000 nM
same,IC50,second compound 0.316 µM,> 10000 nM
same,IC50,second compound 1 µM,> 10000 nM
same,IC50,second compound 3.16 µM,> 10000 nM
same,IC50,second compound 10 µM,> 10000 nM
same,"viability, T/C",[1],105%
same,"viability, T/C",[2],104%
same,"viability, T/C",[3],99.3%
same,"viability, T/C",[4],99%
same,"viability, T/C",[5],87%
same,"viability, T/C",[6],79%
same,"viability, T/C",[7],107%
same,"viability, T/C",[8],94.5%
same,"viability, T/C",[9],110%
same,"viability, T/C",[10],96%
same,"viability, T/C",[11],107%
same,"viability, T/C",[12],66.6%
same,"viability, T/C",[13],115%
same,"viability, T/C",[14],97.6%
same,"viability, T/C",[15],103%
same,"viability, T/C",[16],101%
same,"viability, T/C",[17],103%
same,"viability, T/C",[18],72.4%
same,"viability, T/C",[19],112%
same,"viability, T/C",[20],99.5%
same,"viability, T/C",[21],98.5%
same,"viability, T/C",[22],95.9%
same,"viability, T/C",[23],90.5%
same,"viability, T/C",[24],92.8%
same,"viability, T/C",[25],105%
same,"viability, T/C",[26],90.2%
same,"viability, T/C",[27],100%
same,"viability, T/C",[28],84.9%
same,"viability, T/C",[29],79.9%
same,"viability, T/C",[30],89.9%
same,"viability, T/C",[31],111%
same,"viability, T/C",[32],93.3%
same,"viability, T/C",[33],94.5%
same,"viability, T/C",[34],79.8%
same,"viability, T/C",[35],88.3%
same,"viability, T/C",[36],86.5%
CCc1c2c(nc3ccc(O)cc13)-c1cc3c(c(=O)n1C2)COC(=O)[C@]3(O)CC + CN(C)c1ccc(Nc2c3ccc(NC(=O)CCN4CCCC4)cc3nc3cc(NC(=O)CCN4CCCC4)ccc23)cc1,IC50,second compound 0.0316 µM,170 nM
same,IC50,second compound 0.1 µM,162 nM
same,IC50,second compound 0.316 µM,148 nM
same,IC50,second compound 1 µM,117 nM
same,IC50,second compound 3.16 µM,211 nM
same,IC50,second compound 10 µM,218 nM
same,"viability, T/C","second compound 0.0316 µM, first compound 0.000999 µM",102%
same,"viability, T/C","second compound 0.0316 µM, first compound 0.00316 µM",104%
same,"viability, T/C","second compound 0.0316 µM, first compound 0.00999 µM",85.5%
same,"viability, T/C",[1],69.5%
same,"viability, T/C","second compound 0.0316 µM, first compound 0.0999 µM",61.8%
same,"viability, T/C",[3],40%
same,"viability, T/C","second compound 0.1 µM, first compound 0.000999 µM",104%
same,"viability, T/C","second compound 0.1 µM, first compound 0.00316 µM",90.9%
same,"viability, T/C","second compound 0.1 µM, first compound 0.00999 µM",92.1%
same,"viability, T/C",[7],60.7%
same,"viability, T/C","second compound 0.1 µM, first compound 0.0999 µM",61.2%
same,"viability, T/C",[9],40.9%
same,"viability, T/C","second compound 0.316 µM, first compound 0.000999 µM",110%
same,"viability, T/C","second compound 0.316 µM, first compound 0.00316 µM",107%
same,"viability, T/C","second compound 0.316 µM, first compound 0.00999 µM",71.6%
same,"viability, T/C",[13],70.9%
same,"viability, T/C","second compound 0.316 µM, first compound 0.0999 µM",53.8%
same,"viability, T/C",[15],43%
same,"viability, T/C","second compound 1 µM, first compound 0.000999 µM",95.2%
same,"viability, T/C","second compound 1 µM, first compound 0.00316 µM",97.6%
same,"viability, T/C","second compound 1 µM, first compound 0.00999 µM",92.4%
same,"viability, T/C",[19],76.8%
same,"viability, T/C","second compound 1 µM, first compound 0.0999 µM",51.2%
same,"viability, T/C",[21],42.5%
same,"viability, T/C","second compound 3.16 µM, first compound 0.000999 µM",103%
same,"viability, T/C","second compound 3.16 µM, first compound 0.00316 µM",105%
same,"viability, T/C","second compound 3.16 µM, first compound 0.00999 µM",91.6%
same,"viability, T/C",[25],68.7%
same,"viability, T/C","second compound 3.16 µM, first compound 0.0999 µM",63.1%
same,"viability, T/C",[27],43.7%
same,"viability, T/C","second compound 10 µM, first compound 0.000999 µM",108%
same,"viability, T/C","second compound 10 µM, first compound 0.00316 µM",102%
same,"viability, T/C","second compound 10 µM, first compound 0.00999 µM",99.5%
same,"viability, T/C",[31],86.2%
same,"viability, T/C","second compound 10 µM, first compound 0.0999 µM",63.1%
same,"viability, T/C",[33],43.6%
COc1cc(C2c3cc4c(cc3C(OC3OC5COC(C)OC5C(O)C3O)C3COC(=O)C23)OCO4)cc(OC)c1O (stereo not drawn) + CN(C)c1ccc(Nc2c3ccc(NC(=O)CCN4CCCC4)cc3nc3cc(NC(=O)CCN4CCCC4)ccc23)cc1,IC50,second compound 0.0316 µM,> 10000 nM
same,IC50,second compound 0.1 µM,> 10000 nM
same,IC50,second compound 0.316 µM,> 10000 nM
same,IC50,second compound 1 µM,> 10000 nM
same,IC50,second compound 3.16 µM,> 10000 nM
same,IC50,second compound 10 µM,> 10000 nM
same,"viability, T/C",[1],94.2%
same,"viability, T/C",[2],94.2%
same,"viability, T/C",[3],86.6%
same,"viability, T/C",[4],117%
same,"viability, T/C",[5],86.7%
same,"viability, T/C",[6],68.2%
same,"viability, T/C",[7],105%
same,"viability, T/C",[8],85.4%
same,"viability, T/C",[9],101%
same,"viability, T/C",[10],86%
same,"viability, T/C",[11],75%
same,"viability, T/C",[12],67.6%
same,"viability, T/C",[13],108%
same,"viability, T/C",[14],93%
same,"viability, T/C",[15],99%
same,"viability, T/C",[16],95.6%
same,"viability, T/C",[17],97.7%
same,"viability, T/C",[18],66.4%
same,"viability, T/C",[19],97.4%
same,"viability, T/C",[20],67.8%
same,"viability, T/C",[21],114%
same,"viability, T/C",[22],105%
same,"viability, T/C",[23],89.2%
same,"viability, T/C",[24],60.8%
same,"viability, T/C",[25],94.7%
same,"viability, T/C",[26],90%
same,"viability, T/C",[27],120%
same,"viability, T/C",[28],106%
same,"viability, T/C",[29],86%
same,"viability, T/C",[30],66.8%
same,"viability, T/C",[31],90.3%
same,"viability, T/C",[32],90.4%
same,"viability, T/C",[33],105%
same,"viability, T/C",[34],105%
same,"viability, T/C",[35],90.4%
same,"viability, T/C",[36],64.3%
COc1cccc2c1C(=O)c1c(O)c3c(c(O)c1C2=O)CC(O)(C(=O)CO)CC3OC1CC(N)C(O)C(C)O1 (stereo not drawn) + CN(C)c1ccc(Nc2c3ccc(NC(=O)CCN4CCCC4)cc3nc3cc(NC(=O)CCN4CCCC4)ccc23)cc1,IC50,second compound 0.0316 µM,1530 nM
same,IC50,second compound 0.1 µM,1890 nM
same,IC50,second compound 0.316 µM,1950 nM
same,IC50,second compound 1 µM,2260 nM
same,IC50,second compound 3.16 µM,2060 nM
same,IC50,second compound 10 µM,2580 nM
same,"viability, T/C",[1],114%
same,"viability, T/C",[2],99%
same,"viability, T/C",[3],92.8%
same,"viability, T/C",[4],62.6%
same,"viability, T/C",[5],27.7%
same,"viability, T/C",[6],1.26%
same,"viability, T/C",[7],104%
same,"viability, T/C",[8],96.2%
same,"viability, T/C",[9],109%
same,"viability, T/C",[10],71.6%
same,"viability, T/C",[11],31.1%
same,"viability, T/C",[12],1.8%
same,"viability, T/C",[13],89.4%
same,"viability, T/C",[14],110%
same,"viability, T/C",[15],98.6%
same,"viability, T/C",[16],73.7%
same,"viability, T/C",[17],32.4%
same,"viability, T/C",[18],2.16%
same,"viability, T/C",[19],85%
same,"viability, T/C",[20],94.2%
same,"viability, T/C",[21],106%
same,"viability, T/C",[22],73.8%
same,"viability, T/C",[23],39.5%
same,"viability, T/C",[24],1.89%
same,"viability, T/C",[25],97.8%
same,"viability, T/C",[26],88.1%
same,"viability, T/C",[27],96.5%
same,"viability, T/C",[28],74.2%
same,"viability, T/C",[29],35.2%
same,"viability, T/C",[30],2.76%
same,"viability, T/C",[31],97%
same,"viability, T/C",[32],100%
same,"viability, T/C",[33],105%
same,"viability, T/C",[34],83.6%
same,"viability, T/C",[35],42.9%
same,"viability, T/C",[36],4.44%
